We go through 13 compounds from patent US20090208620A1, “Alimentary Compositions and Methods For Metabolic Modulation” (VDF FUTURECEUTICALS, INC., priority 2003, published 2009).

Several values for one entry are separate records, joined by “and”; a condition that tells them apart may be missing. Equal values may be shown once.

Holding throughout (type): cell-based, mouse
One experiment has as its system activated Akt. Nature of the experiment: Western immunoblot for activated (phospho-Ser473) Akt in muscle cells. As to conditions: for FOLD AKT ACTIVATION (OVER CONTROL): cells treated 30 minutes at 37° C; for effect on Akt activity (in words): no concentration stated. How it is done:
(§1) The levels of Glut-4, activated AMPK and activated Akt were measured in mouse muscle cells C2C12 (from ATTC) and in primary culture of human skeletal muscle cells (Clonetics, Inc.) using Western immunoblotting. C2C12 cells were plated at 1.5×1-exp5 cells per mL/well (12-well plate) in standard cell culture medium (DMEM supplemented with 10% fetal bovine serum (FBS), 25 mM glucose, 20 mM Hepes, 4 mM glutamine and 2 mM sodium pyruvate. 48 hrs after the plating, medium was changed to differentiation medium (DMEM supplemented with 5 mM of glucose and 0.5% of FBS) for next 3-4 days to stimulate the formation of myotubes. Three hours before the treatment with selected agents, cells were washed with PBS and transferred to PBS supplemented with 5 mM of glucose.
(§2) Human skeletal muscle cells (HSKM) were cultured in SKBM-2 mediums provided by Clonetics. 48 hrs after cell plating, medium was changed to SKBM medium to stimulate differentiation of the cells to myotubes. When differentiated, the myotubes were transferred to PBS supplemented with 5 mM glucose for three hrs before the treatment.
(§3) Analysis of C2C12 cells for the level of activated AMPK, Akt and the level of GLUT-4 was performed in the same experimental system. The cells were treated for 30 minutes at 37° C. […] Subsequently, 20 μg per sample of sample protein was used for Western analysis using NuPage 10% Bis/Tris gels (Invitrogen). After exposure of membranes to primary and secondary antibodies AMPK, AKT or Glut-4 was detected using ECL-Plus (Amersham) following producer's instruction. Chemilumiscent signals were detected by using ChemiDoc system from Biorad. Intensity of detected signals were analyzed and measured using Quantity One software (Biorad). Alternatively, the level of phosphorylated AMPK was detected using ECL kit from Amersham and short exposure to Kodak films.
(§4) Experimental setup: Cell Culture was followed by treatment with selected contemplated compounds, which was followed by cell lysis and western blot analysis for AMPK, Akt, GLUT4, total AMPK, and total Akt. Signals were acquired accordingly.
(In western blotting, separated proteins are transferred to a membrane and probed.)

The next experiment concerns activated AMPK. Nature of the experiment: Western immunoblot for activated (phospho-Thr172) AMPK in muscle cells. The settings on record: for FOLD AMPK ACTIVATION (OVER CONTROL): cells treated 30 minutes at 37° C; for effect on AMPK activity (in words): no concentration stated. The method, then: as §1, §2, §3, §4
In a further experiment the test system is GLUT-4. Description: Western immunoblot for GLUT-4 protein level in C2C12 cells. How it is done:
as §1
Analysis of C2C12 cells for the level of activated AMPK, Akt and the level of GLUT-4 was performed in the same experimental system. The cells were treated for 30 minutes at 37° C. After the treatment, the cells were washed with ice-cold PBS and lysed with 80 μl of lysis buffer/well (M-PER buffer from Pierce supplemented with protease and phosphatase inhibitor mix (Calbiochem) for 10 minutes on ice. Next, the plates were transferred to −20° C. to improve the lysis of the cells. Next cells were sonicated for 5 minutes and lysate was transferred to Eppendorf tubes and centrifuged at 14,000 rpm for 10 minutes. Supernatants were collected in fresh Eppendorf tubes and kept on ice to measure the amount of total proteins. 3 μl of each lysate was used to measure the protein concentration using standard Bradford method (Biorad). Subsequently, 20 μg per sample of sample protein was used for Western analysis using NuPage 10% Bis/Tris gels (Invitrogen). After exposure of membranes to primary and secondary antibodies AMPK, AKT or Glut-4 was detected using ECL-Plus (Amersham) following producer's instruction. Chemilumiscent signals were detected by using ChemiDoc system from Biorad. Intensity of detected signals were analyzed and measured using Quantity One software (Biorad). Alternatively, the level of phosphorylated AMPK was detected using ECL kit from Amersham and short exposure to Kodak films.
Experimental setup: Cell Culture was followed by treatment with selected contemplated compounds, which was followed by cell lysis and western blot analysis for AMPK, Akt, GLUT4, total AMPK, and total Akt. Signals were acquired accordingly. Primary antibodies used in these studies are the following: Anti-phospho-AMPK (Thr172), mouse, rabbit IgG, from Cell Signaling, #2531; Anti-phospho-Akt (Ser473), mouse, rabbit IgG, Cell Signaling, #9271; Anti-Glut-4, mouse, rabbit IgG, Calbiochem, #400064; Anti-AMPK (total), mouse, rabbit IgG, Cell Signaling, #2532; Anti-Akt (total), mouse, rabbit IgG, Cell Signaling, #9272.
The effects of kinetin, N^2-Acetyl-Guanosine and N^2-Acetyl-Guanine on GLUT-4 protein level in C2C12 cells were investigated following the same experimental design as described for AMPK and AKT. Anti-Glut-4 antibody used in this study was from Calbiochem. […] Table 3 refers to multiple independent experiments where multiple identical concentrations for the same reagents are indicated.

As for `NC(=O)c1ncn([C@@H]2O[C@H](CO)[C@@H](O)[C@H]2O)c1N` [AICAR, reference compound], the “FOLD AKT ACTIVATION (OVER CONTROL)” value is given as 2.20 fold in the experiment with activated Akt (50.0 microM) and 5.45 fold with activated Akt (500.0 microM).
Take `Nc1ncnc2c1ncn2[C@@H]1O[C@H](CO)[C@@H](O)[C@H]1O` [Adenosine]: the “FOLD AMPK ACTIVATION (OVER CONTROL)” value is reported as 1.87 fold with activated AMPK (2.5 microM), 1.64 fold with activated AMPK (5.0 microM) and 1.83 fold in the experiment with activated AMPK (12.5 microM).
Turning to `c1ccc(CNc2ncnc3nc[nH]c23)cc1` [Benzyl-Adenine], the “FOLD AMPK ACTIVATION (OVER CONTROL)” value in the experiment with activated AMPK (0.5 microM) was 2.18 fold; in the experiment with activated AMPK (5.0 microM), 2.70 fold; in the experiment with activated AMPK (50.0 microM) it was 2.92 fold.
For the compound `CC(C)=CCNc1ncnc2nc[nH]c12` [Gamma, Gamma-Dimethylally-6-Aminopurine], the “FOLD AMPK ACTIVATION (OVER CONTROL)” value in the experiment on activated AMPK (0.5 microM) stood at 2.82 fold; in the experiment on activated AMPK (5.0 microM) it was 2.45 fold; with activated AMPK (50.0 microM) it was 2.11 fold. For the same compound, the “FOLD AKT ACTIVATION (OVER CONTROL)” value with activated Akt (0.8 microM) is 1.90 fold and 3.56 fold; in the experiment on activated Akt (2.0 microM) it was 1.32 fold.
On to `Nc1nc2c(ncn2[C@@H]2O[C@H](CO)[C@@H](O)[C@H]2O)c(=O)[nH]1` [Guanosine], for which, in the experiment on activated AMPK (5.0 microM), the “FOLD AMPK ACTIVATION (OVER CONTROL)” value worked out at 3.70 fold. Further, in the experiment on activated AMPK, the “effect on AMPK activity (in words)” value is listed as “potent activators of AMPK”. Further, the “effect on Akt activity (in words)” value with activated Akt is “potent activators of AMPK as well as Akt”.
Take `OC[C@H]1O[C@@H](n2cnc3c(NCc4ccco4)ncnc32)[C@H](O)[C@@H]1O` [Kinetin Riboside]: the “FOLD AMPK ACTIVATION (OVER CONTROL)” value in the experiment on activated AMPK (3.0 microM) is 12.00 fold. Also, the “FOLD AKT ACTIVATION (OVER CONTROL)” value with activated Akt (0.8 microM) came to 3.71 fold; with activated Akt (2.0 microM) it was 5.14 fold; in the experiment with activated Akt (5.0 microM), 3.32 fold.
Turning to `CN(C)C(=N)N=C(N)N` [Metformin, reference compound], in the experiment with activated AMPK (2.0 milliM), the “FOLD AMPK ACTIVATION (OVER CONTROL)” value was determined as 1.42 fold. Besides, the “FOLD AKT ACTIVATION (OVER CONTROL)” value in the experiment with activated Akt (2.0 milliM) is reported as 2.70 fold. The “FOLD CHANGE IN GLUT-4 LEVEL (OVER CONTROL)” value with GLUT-4 (2000 microM) was 1.50 fold.
For the compound `CC(=O)Nc1ccn([C@@H]2O[C@H](CO)[C@@H](O)[C@H]2O)c(=O)n1` [N^4-Acetyl-Cytidine], the “FOLD AKT ACTIVATION (OVER CONTROL)” value with activated Akt (0.8 microM) is 2.45 fold; in the experiment with activated Akt (2.0 microM), 1.46 fold and 1.50 fold; with activated Akt (5.0 microM), 1.64 fold and 1.36 fold.
`CC(=O)Nc1ncnc2c1ncn2[C@@H]1O[C@H](CO)[C@@H](O)[C@H]1O` [N^6-Acetyl-Adenosine]: the “FOLD AMPK ACTIVATION (OVER CONTROL)” value in the experiment on activated AMPK (2.5 microM) was 1.08 fold; in the experiment on activated AMPK (5.0 microM), 2.41 fold; with activated AMPK (12.5 microM), 2.18 fold.
In the case of `CN(CCOc1ccc(CC2SC(=O)NC2=O)cc1)c1ccccn1` (stereo not drawn) [Rosiglitazone, reference compound], the “FOLD AMPK ACTIVATION (OVER CONTROL)” value with activated AMPK (3.0 microM) is reported as 3.50 fold. Besides, the “FOLD AKT ACTIVATION (OVER CONTROL)” value in the experiment on activated Akt (1.0 microM) worked out at 2.83 fold; in the experiment on activated Akt (9.0 microM), 1.78 fold; in the experiment with activated Akt (27.0 microM), 0.71 fold. The “FOLD CHANGE IN GLUT-4 LEVEL (OVER CONTROL)” value in the experiment with GLUT-4 (9.0 microM) is 3.61 fold; in the experiment with GLUT-4 (27.0 microM), 3.19 fold.
On to `C/C(=C\CNc1ncnc2nc[nH]c12)CO` [Trans-Zeatin], for which the entries for the “FOLD AMPK ACTIVATION (OVER CONTROL)” value in the experiment on activated AMPK (1.0 microM) and in the experiment on activated AMPK (10.0 microM) were 2.33 fold and 4.27 fold, respectively. For the same compound, the “FOLD AKT ACTIVATION (OVER CONTROL)” value in the experiment with activated Akt (1.0 microM) amounted to 0.90 fold; with activated Akt (10.0 microM) it was 0.86 fold.
For the compound `C/C(=C\CNc1ncnc2[nH]cnc12)CO` [Zeatin], the “FOLD AMPK ACTIVATION (OVER CONTROL)” value in the experiment on activated AMPK (1.0 microM) is 2.33 fold and 2.15 fold; with activated AMPK (10.0 microM) it was 2.04 fold. Besides, in the experiment on activated AMPK, the “effect on AMPK activity (in words)” value is reported as “potent stimulator of AMPK”. For the same compound, the “FOLD AKT ACTIVATION (OVER CONTROL)” value in the experiment on activated Akt (1.0 microM) is 0.95 fold; with activated Akt (10.0 microM), 1.36 fold. In the experiment on activated Akt, the “effect on Akt activity (in words)” value is listed as “not Akt”.
Turning to Insulin, the figures for the “FOLD AKT ACTIVATION (OVER CONTROL)” value in the experiment with activated Akt (0.10 nanoM), in the experiment on activated Akt (25.0 nanoM) and with activated Akt (50.0 nanoM) were 1.75 fold, 3.40 fold and 3.28 fold, respectively.
